Key:
[1] = test system: Caco-2 cells; conditions: cited from earlier work
[2] = mouse, in vivo, po, 80 mg/kg; cited from earlier work
[3] = test system: Caco-2 cell lysates; test: Biological stability in Caco-2 cell lysates; assay type: in vitro ADME, human; conditions: individual compound 100 µM, HBSS pH 6, up to 24 h
Experimental: Caco-2 cells were cultured in T75 flasks at a seeding density of 2 × 10^6 cells/flask for 12–15 days. The cell lysate was freshly prepared by washing the cells twice with ice-cold HBSS at pH 6 (12 mL). The cells were then collected by scraping and resuspending in ice-cold HBSS at pH 6 (7.5 mL/flask). The cell suspension was vortexed and sonicated in an ice water bath for 30 min to obtain the lysate, which was kept on ice until use, and its cellular protein concentration was determined using a BCA™ protein assay kit (Thermo Fisher Scientific, Rockford, IL, USA) with bovine serum albumin as a reference standard.
Many phenolic compounds were subject to sulfation and glucuronidation by Caco-2 cells at concentrations higher than 20 μM [16, 21, 43] and the metabolites of GA, MG and PGG could not be observed in Caco-2 transport experiment. Therefore, the concentration of the standard pure compounds used in this study was higher than that used in the chemical stability experiment. After preparing the cell lysate, the test compounds were prepared by dissolution in HBSS at pH 6 and then added to the lysates for a final concentration of 1.08 mg/mL protein to obtain final individual concentrations of 100 μM for GA, MG and PGG and 0.75 mg/mL for MSKE, which is equivalent to concentrations of 55.12 ± 4.57 µM GA, 7.56 ± 0.85 µM MG and 110.02 ± 17.52 µM PGG. The mixtures were then incubated in a water bath at 37 °C for 24 h, and samples (50 µL for standard compounds, and 200 µL for MSKE) were collected at 0, 4, 6 and 24 h. Each sample was then added to an ice-cold 50% methanol (150 µL for GA, MG and PGG, and 600 µL for MSKE) to stop the reaction, vortexed and centrifuged at 15,500 rpm for 15 min, and the supernatant was injected into the UPLC for analysis.
The chemical and biological stabilities of the phenolic compounds were expressed as the concentration of the analyte at different time points relative to the concentration of the same analyte at time zero multiplied by 100 (% recovery).

[4] = rat, in vivo, ip, 20 mg/kg; cited from earlier work

Compound: O=C(OC[C@H]1O[C@@H](OC(=O)c2cc(O)c(O)c(O)c2)[C@H](OC(=O)c2cc(O)c(O)c(O)c2)[C@@H](OC(=O)c2cc(O)c(O)c(O)c2)[C@@H]1OC(=O)c1cc(O)c(O)c(O)c1)c1cc(O)c(O)c(O)c1 [PGG, Pentagalloylglucopyranose]
- Papp AB [1]: 0.08 ± 0.03 × 10^−6 cm/s
- plasma PGG levels [2]: below the limit of detection
- stability in HBSS at pH 6 (blank control) [3]: stable in HBSS at pH 6 for 6 h and slightly degraded within 24 h
- Cmax [4]: 6 µM

Reference: PMC6332320, “Factors Influencing Oral Bioavailability of Thai Mango Seed Kernel Extract and Its Key Phenolic Principles” (Molecules, 2015)
